Two compounds from paper PMC3913620, “Preclinical Evaluation of the Novel, Orally Bioavailable Selective Inhibitor of Nuclear Export (SINE) KPT-335 in Spontaneous Canine Cancer: Results of a Phase I Study” (PLoS ONE, 2014) can be followed below.

What is called IC50 is the concentration needed to halve the response being measured.

Data set [1] relates to Jurkat cells. Description: MTS cell viability assay, Jurkat. Particulars: 72 hours, read-out: IC50 (± S.D.), Jurkat. The class given is cell-based, human. How it is done: Cryopreserved tumor cells obtained from sterile lymph node biopsy samples from dogs with diffuse large B cell lymphoma (DLBCL) were cultured with 100 ng/mL of megaCD40L (Enzo Life Science, Plymouth Meeting, PA) as previously described, [27]. The human T-cell leukemia cell line, Jurkat, was from the American Type Culture Collection (ATCC, Manassas, VA) and cultured in RPMI1640 medium (Gibco/BRL, Grand Island, NY) containing 10% fetal bovine serum (FBS; Atlas Biologicals, Fort Collins, CO), 2-mercaptoethanol (Gibco/BRL), HEPES, L-glutamine, sodium pyruvate (Mediatech Inc., Manassas, VA), non-essential amino acids (Sigma Aldrich, St. Louis, MO), and Primocin (Invivogen, San Diego, CA). The canine DLBCL cell line CLBL1 obtained from Dr. Barbara Rütgen (University of Vienna, Austria), [29] and human DLBCL cell lines OCI-Ly3 [30], [31] and OCI-Ly10 [32] obtained from Dr. Anne Novak (Mayo Clinic Cancer Center, Rochester, MN) were cultured in complete Iscove’s Modified Dulbecco’s medium (IMDM) containing 20% FBS, L-glutamine, and Primocin. All cells were maintained at 37°C in a humidified 5% CO2 atmosphere. The following additional canine tumor cell lines were used to evaluate response to SINE compounds: C2, mast cell tumor line provided by Dr. George Caughey, UCSF, San Francisco, CA [33]; OSA16, osteosarcoma cell line, provided by Dr. Jaime Modiano, UM, Minneapolis, MN [34]; and 323610-3, malignant melanoma cell line, provided by Dr. Michael Kent, UCD, Davis, CA [35]. […]
(§1) Cell viability for lymphoid lines was determined by the MTS (3-(4, 5-dimethylthiazol-2-yl)-5-(3-carboxymethoxyphenyl)-2-(4-sulfophenyl)-2H-tetrazolium) assay using CellTiter 96® AQueous One Solution Cell Proliferation Assay Kit (Promega, Madison, WI). […] After 72 hours, 20 µL of MTS solution was added to each well and cells were incubated for another 4 hours before measuring absorbance at 490 nm using a Wallac Victor 1420 Multilabel Counter (Perkin Elmer, Waltham, MA). The IC50 of SINE was calculated using Prism 6 software (GraphPad Software, Inc., La Jolla, CA).
On the technique in general: Tetrazolium assays rely on reduction of a dye to a coloured formazan, in cell work by metabolically active cells.

In data set [2] the test system is primary canine DLBCL cells. Nature of the data set: MTS cell viability assay, primary canine DLBCL samples. The class given is cell-based. How it is done: Cryopreserved tumor cells obtained from sterile lymph node biopsy samples from dogs with diffuse large B cell lymphoma (DLBCL) were cultured with 100 ng/mL of megaCD40L (Enzo Life Science, Plymouth Meeting, PA) as previously described, [27]. The human T-cell leukemia cell line, Jurkat, was from the American Type Culture Collection (ATCC, Manassas, VA) and cultured in RPMI1640 medium (Gibco/BRL, Grand Island, NY) containing 10% fetal bovine serum (FBS; Atlas Biologicals, Fort Collins, CO), 2-mercaptoethanol (Gibco/BRL), HEPES, L-glutamine, sodium pyruvate (Mediatech Inc., Manassas, VA), non-essential amino acids (Sigma Aldrich, St. Louis, MO), and Primocin (Invivogen, San Diego, CA). The canine DLBCL cell line CLBL1 obtained from Dr. Barbara Rütgen (University of Vienna, Austria), [29] and human DLBCL cell lines OCI-Ly3 [30], [31] and OCI-Ly10 [32] obtained from Dr. Anne Novak (Mayo Clinic Cancer Center, Rochester, MN) were cultured in complete Iscove’s Modified Dulbecco’s medium (IMDM) containing 20% FBS, L-glutamine, and Primocin. All cells were maintained at 37°C in a humidified 5% CO2 atmosphere. The following additional canine tumor cell lines were used to evaluate response to SINE compounds: C2, mast cell tumor line provided by Dr. George Caughey, UCSF, San Francisco, CA [33]; OSA16, osteosarcoma cell line, provided by Dr. Jaime Modiano, UM, Minneapolis, MN [34]; and 323610-3, malignant melanoma cell line, provided by Dr. Michael Kent, UCD, Davis, CA [35]. All cell lines were cultured in complete RPMI media containing 10% FBS, antibiotic/antimycotic, HEPES, sodium pyruvate, nonessential amino acids and Glutamax (media supplements from Gibco).
Cell viability for lymphoid lines was determined by the MTS (3-(4, 5-dimethylthiazol-2-yl)-5-(3-carboxymethoxyphenyl)-2-(4-sulfophenyl)-2H-tetrazolium) assay using CellTiter 96® AQueous One Solution Cell Proliferation Assay Kit (Promega, Madison, WI). Briefly, for lymphoid cell lines, 5×10^4 cells (or 1×10^5 primary DLBCL cells) were cultured in 100 µL of complete medium in 96-well plates in the presence of SINE compounds. After 72 hours, 20 µL of MTS solution was added to each well and cells were incubated for another 4 hours before measuring absorbance at 490 nm using a Wallac Victor 1420 Multilabel Counter (Perkin Elmer, Waltham, MA). The IC50 of SINE was calculated using Prism 6 software (GraphPad Software, Inc., La Jolla, CA).

In data set [3] the test system is XPO1. Description: XPO1 inhibition activity. It is filed as biochemical.
In data set [4] the test system is OCI-Ly3 DLBCL cells. Description: MTS cell viability assay, OCI-Ly3. Particulars: 72 hours, read-out: IC50 (± S.D.), OCI-Ly3. The class given is cell-based, human. How it is done: (§2) Cryopreserved tumor cells obtained from sterile lymph node biopsy samples from dogs with diffuse large B cell lymphoma (DLBCL) were cultured with 100 ng/mL of megaCD40L (Enzo Life Science, Plymouth Meeting, PA) as previously described, [27]. The human T-cell leukemia cell line, Jurkat, was from the American Type Culture Collection (ATCC, Manassas, VA) and cultured in RPMI1640 medium (Gibco/BRL, Grand Island, NY) containing 10% fetal bovine serum (FBS; Atlas Biologicals, Fort Collins, CO), 2-mercaptoethanol (Gibco/BRL), HEPES, L-glutamine, sodium pyruvate (Mediatech Inc., Manassas, VA), non-essential amino acids (Sigma Aldrich, St. Louis, MO), and Primocin (Invivogen, San Diego, CA). […]
as §1

For data set [5], the system named is OCI-Ly10 DLBCL cells. Description: MTS cell viability assay, OCI-Ly10. Particulars: 72 hours, read-out: IC50 (± S.D.), OCI-Ly10. It is filed as cell-based, human. As for the experimental part:
as §2, §1

Data set [6] can be described thus: Oral bioavailability. It is filed as in vivo. Particulars: in vivo, po.
The mark [7] stands for this setting: primary sample #5, 72 hours, read-out: IC50, DLBCL#5.

Read-outs that look alike come from different tables or passages of the source.

In the case of `COc1cc(-c2ncn(/C=C/C(=O)OC(C)C)n2)cc(C(F)(F)F)c1` [KPT-185 trans], the IC50 in data set [1] and in data set [2] (setting [7]) was more than 1000 nM throughout. Besides, the “XPO1 inhibition activity, fold less than the cis-isomer” value in data set [3] was approximately 100 fold.
On to `COc1cc(-c2ncn(/C=C\C(=O)OC(C)C)n2)cc(C(F)(F)F)c1` [KPT-185], for which the IC50 came to 24.1 nM in data set [4]; 246 nM in data set [5]; 8.7 ± 0.7 nM in data set [1]; 13.3 ± 6.2 nM in data set [2] (mean of primary canine DLBCL samples (n = 6), 72 hours, read-out: IC50 (± S.D.), Canine DLBCLs); 13.1 nM in data set [2] (primary sample #1, 72 hours, read-out: IC50, DLBCL#1); 9 nM in data set [2] (primary sample #2, 72 hours, read-out: IC50, DLBCL#2). The IC50 in data set [2] (primary sample #3, 72 hours, read-out: IC50, DLBCL#3) was found to be 12.2 nM; in data set [2] (primary sample #4, 72 hours, read-out: IC50, DLBCL#4) it was 4.9 nM; in data set [2] (setting [7]) it was 21.6 nM. In addition, the oral bioavailability result in data set [6] is reported as “limited oral bioavailability”.
